{
  "source": "patent US9211252B2",
  "about": "“Increased drug loading capacity of polymeric material” (Medtronic, Inc., priority 2007, dated 2015)",
  "key": {"[1]": {"test": "Solvent swelling of silicone boots", "format": "physicochemical", "details": "silicone boots placed in solvent for 2 hours; solvent ratios by volume", "experimental": "The effect of various solvents to swell (as determined by % weight increase) silicone boots was determined. Silicone boots were weighed, placed in a solvent for 2 hours, and weighed again.\nThe solvent ratios in Table 1 are by volume. The ability to swell silicone by 30% or more is believed to be suitable for increasing the loading capacity of silicone. The ability to swell silicone by 50% or more is believed to be more suitable for increasing the loading capacity of silicone."}, "[2]": {"details": "for increase in drug loading, pre-extracted relative to non-extracted silicone discs: 2 hour plus 24 hour extracted; for average drug loaded into silicone discs: 24 hr loading, HPLC of 25 mL extract", "method": "One sheet was removed after 2 hours; the other was removed after 24. The sheets were allowed to dry for 24 hours.\nNine 1¼ inch discs were punched from each sheet of silicone. The discs (27) were separated into 9 jars (3 per jar). Each jar contained a drug loading solution. Three jars contained clonidine, three contained dexamethasone and three contained sulindac.\nAfter stirring 24 hrs in solution, all the samples were removed, rinsed twice for approximately 10 seconds in a sufficient volume of methanol and allowed to dry overnight in open air on a drying rack. The samples were then stored until extraction in jars in a nitrogen purged foil bag.\nEach sample was cut in half, and the half sample was weighed. Initially only the clonidine and sulindac samples were analyzed.\nAll samples were extracted in THF/ethanol 4:1 (15 mL) for 30 min; then re-extracted in THF/ethanol 4:1 (10 mL) for 20 min. The first and second extracts were combined in a volumetric flask and any additional volume was added to make exactly 25 mL of solution. These samples were stored in at 4° C. until analysis.\nHPLC Analysis was performed using an Agilent 1100 stack. For dexamethasone, isocratic separation using acetonytrile:water (45:55) was performed. A Zorbax SB-Phenyl, 5 μm, 4.6×150 mm, column (Agilent Technologies, Inc.) was used at a column temperature of 30° C. The flow rate was 10 mL/min, with a run time of 15 minutes. Dexamethasone was detected by UV at 245 nm.\nFor sulindac, isocratic separation using 0.1% phosphoric acid in acetonitrile:water (38:62) was performed. A PRONTOSIL 120-5-C18-ace-EPS, 5 μm, 4.6×150 mm, column was used at a column temperature of 37° C. The autosampler temperature was 15° C. The flow rate was 1.0 mL/min, with a run time of 35 min. Sulindac was detected by UV at 285 nm. Injection volumes were 10-50 μL.\nThe autosample temperature was ambient temperature. Isocratic separation using a mobile phase A (MPA):mobile phase B (MPB) ratio of 52:48 was employed. MPA consisted of 2.2 gm 1-octanesulfonic acid, sodium salt for each liter of nanopure water. MPB was HPLC Grade Methanol. The flow rate was 1 mL/min, with a run time of 15 minutes. […] The injection volume was 10 μL"}, "[3]": {"test": "Solubility of drug in the loading solution", "format": "physicochemical", "details": "methanol/butyl acetate loading solution, extra 5 mL methanol added"}, "[4]": {"test": "Loading of minocycline and rifampin into pre-extracted and non-extracted silicone boots", "format": "physicochemical", "details": "for drug concentration in polymer: loading 1 hour in butyl acetate:methanol 85:15", "experimental": "Molded, cured silicone (Dow-Q7 4850) boots designed to fit snuggly around Restore® implantable neurostimulators (Medtroinc, Inc.) were placed in a concentrated drug loading solution containing rifampin (30 mg/ml) and minocycline (15 mg/ml) in butyl acetate:methanol (85:15, by volume). The polymer was allowed to swell in this solution for one hour, rinsed and then dried overnight.\nThe efficiency of various solvents to extract material from cured silicone was tracked by determining the weight loss post-extraction. […] It was initially assumed that subjecting the polymer to drug loading should fulfill the same function as pre-extracting the material prior to drug loading.\nOne thought was that the existence of extractables in the loading solution might increase the solubility of the drugs in solution compared to solubility in the silicone, thus lowering the partitioning of drug into the silicone. Eight non-extracted silicone boots and 10 pre-extracted boots were drug loaded in separate loading solutions. Two additional pre-extracted silicone boots were then loaded in the formulation used to load the non-extracted boots. According to the hypothesis, the loading solution used for the non-extracted boots would theoretically contain higher levels of silicone extractables, and result in lower loading of the pre-extracted boots."}, "[5]": {"details": "not pre-extracted with butyl acetate"}, "[6]": {"details": "pre-extracted with butyl acetate for 2 hours"}, "[7]": {"details": "pre-extracted with butyl acetate for 24 hours"}},
  "note": "“Also recorded” adds a separate entry of the source. Read-outs that look alike come from different tables or passages of the source.",
  "data": [
    {"smiles": "CC(C)=O", "note": "[Acetone]", "values": [
      {"measurement": "% Weight Increase", "setting": "[1]", "result": 15, "unit": "%"}
    ]},
    {"smiles": "CCCCOC(C)=O", "note": "[Butyl Acetate]", "values": [
      {"measurement": "% Weight Increase", "setting": "[1]", "result": 73, "unit": "%"}
    ]},
    {"smiles": "ClC(Cl)Cl", "note": "[Chloroform]", "values": [
      {"measurement": "% Weight Increase", "setting": "[1]", "result": 166, "unit": "%"}
    ]},
    {"smiles": "C1CCCCC1", "note": "[Cyclohexane]", "values": [
      {"measurement": "% Weight Increase", "setting": "[1]", "result": 85, "unit": "%"}
    ]},
    {"smiles": "C1CCCC1", "note": "[Cyclopentane]", "values": [
      {"measurement": "% Weight Increase", "setting": "[1]", "result": 62, "unit": "%"}
    ]},
    {"smiles": "CCOC(C)=O", "note": "[Ethyl acetate]", "values": [
      {"measurement": "% Weight Increase", "setting": "[1]", "result": 54, "unit": "%"}
    ]},
    {"smiles": "CC(C)O", "note": "[Isopropyl alcohol]", "values": [
      {"measurement": "% Weight Increase", "setting": "[1]", "result": 13, "unit": "%"}
    ]},
    {"smiles": "C1CCOC1", "note": "[THF]", "values": [
      {"measurement": "% Weight Increase", "setting": "[1]", "result": 105, "unit": "%"}
    ]},
    {"smiles": "Cc1ccccc1", "note": "[Toluene]", "values": [
      {"measurement": "% Weight Increase", "setting": "[1]", "result": 85, "unit": "%"}
    ]},
    {"smiles": "Clc1cccc(Cl)c1N=C1NCCN1", "note": "[clonidine]", "values": [
      {"measurement": "increase in drug loading, pre-extracted relative to non-extracted silicone discs", "setting": "[2]", "result": "~6", "unit": "%"},
      {"measurement": "average drug loaded into silicone discs", "setting": "[2]; [5]", "result": "19.41 ± 0.20", "unit": "µg/mL"},
      {"measurement": "average drug loaded into silicone discs", "setting": "[2]; [6]", "result": "20.59 ± 0.20", "unit": "µg/mL"},
      {"measurement": "average drug loaded into silicone discs", "setting": "[2]; [7]", "result": "20.49 ± 0.22", "unit": "µg/mL"}
    ]},
    {"smiles": "C[C@@H]1C[C@H]2[C@@H]3CCC4=CC(=O)C=C[C@]4(C)[C@@]3(F)[C@@H](O)C[C@]2(C)[C@@]1(O)C(=O)CO", "note": "[dexamethasone]", "values": [
      {"measurement": "solubility in loading solution", "setting": "[3]", "result": "substantial insolubility; also recorded: did not seem to dissolve well"}
    ]},
    {"smiles": "CO[C@H]1/C=C/O[C@@]2(C)Oc3c(C)c(O)c4c(O)c(c(/C=N/N5CCN(C)CC5)c(O)c4c3C2=O)NC(=O)/C(C)=C\\C=C\\[C@H](C)[C@H](O)[C@@H](C)[C@@H](O)[C@@H](C)[C@H](OC(C)=O)[C@@H]1C", "note": "[rifampin]", "values": [
      {"measurement": "drug concentration in polymer", "setting": "[4]; non-extracted silicone boots", "result": 2.61, "unit": "mg/g"},
      {"measurement": "drug concentration in polymer", "setting": "[4]; silicone boots pre-extracted with butyl acetate", "result": 3.28, "unit": "mg/g"},
      {"measurement": "increase in drug concentration, pre-extracted vs non-extracted", "setting": "[4]; silicone boots, same lot", "result": 25.7, "unit": "%"}
    ]},
    {"smiles": "CC1=C(CC(=O)O)c2cc(F)ccc2/C1=C\\c1ccc([S+](C)[O-])cc1", "note": "(stereo not drawn) [sulindac]", "values": [
      {"measurement": "increase in drug loading, pre-extracted relative to non-extracted silicone discs", "setting": "[2]", "result": "~19", "unit": "%"},
      {"measurement": "average drug loaded into silicone discs", "setting": "[2]; [5]", "result": "1.56 ± 0.03", "unit": "µg/mL"},
      {"measurement": "average drug loaded into silicone discs", "setting": "[2]; [6]", "result": "1.86 ± 0.06", "unit": "µg/mL"},
      {"measurement": "average drug loaded into silicone discs", "setting": "[2]; [7]", "result": "1.88 ± 0.11", "unit": "µg/mL"}
    ]}
  ]
}
